Test results taken from patent publication US12492184B2, “Heteroaryl compounds, preparation methods and uses thereof” (InventisBio Co., Ltd., priority 2020, dated 2025).

System: HEK-Blue IL23 Reporter
Assay: HEK-Blue IL-23 STAT3 Reporter Assay
Format: cell-based, human
Conditions: SEAP read with QUANTI-Blue at OD655
Procedure: HEK-Blue IL23 cells (InvivoGen catalog #HKB-IL23) are designed for the detection of bioactive IL-23 by monitoring the activation of the STAT3 pathway. They were generated by stably introducing the genes for the human IL-23 receptor, STAT3, and the SEAP (secreted embryonic alkaline phosphatase) reporter gene into human HEK293 cell line.
Briefly, around 50,000 cells in DMEM medium supplemented with 10% heat inactivated FBS (˜180 ul) were seeded into each well and incubate for 48 hours at 37° C. with 5% CO2 in air. On day 3, one microliter of compound and 20 ul IL-23 were transferred to the assay plate respectively. The plate was left in the 37° C. incubator overnight. Two microliter of cell supernatant was transferred to a 384-well plate, and 18 ul of resuspended QUANTI-Blue solution was added to each well. SLAP levels were determined using Tecan Spark at OD655.
Cells with no IL23 added were used as Low control. Cells stimulated with IL23 were used as High control. Inhibition rate was calculated with the formula of % inhibition=100*(High control−Treated Well)/(High Control−Low control). IL-23 reporter assay inhibition IC50 was calculated with the equation of Y=Bottom+(Top-Bottom)/(1+10^((Log IC50−X)*HillSlope)).

[1] = HEK-Blue IL23 cells stimulated with IL-23 overnight
[2] = Homo sapiens, HEK-Blue IL-23, HEK-Blue IL23 cells stimulated with IL-23 overnight

Structure (SMILES)	IC50 [1] [nM]	IC50 [2] [nM]
[2H]C([2H])([2H])NC(=O)c1nnc(NC(=O)C2CC2)cc1Nc1nccc2c1S(C)(=O)=NC2 (centres unmarked) [Compound 56]	0.3	–
[2H]C([2H])([2H])NC(=O)c1nnc(NC(=O)C2CC2)cc1Nc1nccc2c1S(C)(=O)=NC2 (centres unmarked) [Compound 57]	51.7	–
[2H]C([2H])([2H])NC(=O)c1nnc(NC(=O)C2CC2)cc1Nc1ncc(OCCN(C)C)cc1S(C)(=O)=O [Compound 61]	–	19.9
[2H]C([2H])([2H])NC(=O)c1nnc(NC(=O)C2CC2)cc1Nc1ncc(C2(F)COC2)cc1S(C)(=O)=O [Compound 62]	–	71.9
[2H]C([2H])([2H])NC(=O)c1nnc(NC(=O)C2CC2)cc1Nc1ncc(OC2COC2)cc1S(C)(=O)=O [Compound 63]	–	1.9
[2H]C([2H])([2H])NC(=O)c1nnc(NC(=O)C2CC2)cc1Nc1ncc(OC(C)C)cc1S(C)(=O)=O [Compound 64]	–	0.6
[2H]C([2H])([2H])NC(=O)c1nnc(NC(=O)C2CC2)cc1Nc1ncc(N2CCOC[C@H]2C)cc1S(C)(=O)=O [Compound 65]	–	0.5
[2H]C([2H])([2H])NC(=O)c1nnc(NC(=O)C2CC2)cc1Nc1ncc(OCC(C)(C)O)cc1S(C)(=O)=O [Compound 66]	–	5.7
[2H]C([2H])([2H])NC(=O)c1nnc(NC(=O)C2CC2)cc1Nc1ncc(OC[C@H](C)OC)cc1S(C)(=O)=O [Compound 67]	–	1
[2H]C([2H])([2H])NC(=O)c1nnc(NC(=O)C2CC2)cc1Nc1ncc(OC[C@@H](C)OC)cc1S(C)(=O)=O [Compound 68]	–	0.6
[2H]C([2H])([2H])NC(=O)c1nnc(NC(=O)C2CC2)cc1Nc1ncc(O[C@@H](C)COC)cc1S(C)(=O)=O [Compound 69]	–	0.2
[2H]C([2H])([2H])NC(=O)c1nnc(NC(=O)C2CC2)cc1Nc1ncc(O[C@H](C)COC)cc1S(C)(=O)=O [Compound 70]	–	1.3
[2H]C([2H])([2H])NC(=O)c1nnc(NC(=O)C2CC2)cc1Nc1nc(C)sc1S(C)(=O)=O [Compound 71]	–	5.4
[2H]C([2H])([2H])NC(=O)c1nnc(NC(=O)C2CC2)cc1Nc1nc(C)c(F)cc1S(C)(=O)=O [Compound 72]	–	1.6
[2H]C([2H])([2H])NC(=O)c1nnc(NC(=O)C2CC2)cc1Nc1ncc(OC[C@H](C)OC(F)F)cc1S(C)(=O)=O [Compound 73]	–	1.1
[2H]C([2H])([2H])NC(=O)c1nnc(NC(=O)C2CC2)cc1Nc1ncc(OC[C@H](C)OC=O)cc1S(C)(=O)=O [Compound 74]	–	2.2
[2H]C([2H])([2H])NC(=O)c1nnc(NC(=O)C2CC2)cc1Nc1ncc(OC[C@@H](C)OC(F)F)cc1S(C)(=O)=O [Compound 75]	–	1.6
[2H]C([2H])([2H])NC(=O)c1nnc(NC(=O)C2CC2)cc1Nc1ncc(OC[C@@H](C)OC=O)cc1S(C)(=O)=O [Compound 76]	–	2.5
[2H]C([2H])([2H])NC(=O)c1cnc(NC(=O)C2CC2)cc1Nc1ncc(C2CC2)cc1S(C)(=O)=O [Compound 77]	–	1.1
[2H]C([2H])([2H])NC(=O)c1nnc(NC(=O)C2CC2)cc1Nc1ncc(OCCOC(F)F)cc1S(C)(=O)=O [Compound 78]	–	0.8
[2H]C([2H])([2H])NC(=O)c1nnc(NC(=O)C2CC2)cc1Nc1ncc(OCCOC=O)cc1S(C)(=O)=O [Compound 79]	–	3.3
[2H]C([2H])([2H])NC(=O)c1cnc(NC(=O)C2CC2)cc1Nc1ncc(Cl)cc1S(C)(=O)=O [Compound 80]	–	1.5
[2H]C([2H])([2H])NC(=O)c1cnc(NC(=O)C2CC2)cc1Nc1ncc(OC(C)C)cc1S(C)(=O)=O [Compound 81]	–	0.9
[2H]C([2H])([2H])NC(=O)c1nnc(NC(=O)C2CC2)cc1Nc1ncc(N2CCOC[C@@H]2C)cc1S(C)(=O)=O [Compound 82]	–	9
[2H]C([2H])([2H])NC(=O)c1nnc(NC(=O)C2CC2)cc1Nc1nc(C2CC2)sc1S(C)(=O)=O [Compound 83]	–	7.4
[2H]C([2H])([2H])NC(=O)c1nnc(NC(=O)[C@H]2C[C@@H](OC)C2)cc1Nc1ncc(C2CC2)cc1S(C)(=O)=O [Compound 84]	–	4.1
[2H]C([2H])([2H])NC(=O)c1nnc(NC(=O)[C@H]2C[C@H](OC)C2)cc1Nc1ncc(C2CC2)cc1S(C)(=O)=O [Compound 85]	–	2.1
[2H]C([2H])([2H])NC(=O)c1nnc(NC(=O)[C@H]2C[C@@H](NC)C2)cc1Nc1ncc(C2CC2)cc1S(C)(=O)=O [Compound 86]	–	30.8
[2H]C([2H])([2H])NC(=O)c1nnc(NC(=O)[C@H]2C[C@H](NC)C2)cc1Nc1ncc(C2CC2)cc1S(C)(=O)=O [Compound 87]	–	19.9
